Laboratory results published in ChEMBL document CHEMBL1681705, “Optimisation of ITK inhibitors through successive iterative design cycles” (Bioorg Med Chem Lett, 2011).

Experiments:
[1] = Inhibition of MAPK2 at 0.1 uM; details: values are per cent of control
[2] = target: T1, Inhibitor of nuclear factor kappa-B kinase subunit beta (Homo sapiens) (UniProt O14920); experiment: Inhibition of IKK-beta at 0.1 uM; values are per cent of control
T1 sequence (whole entry): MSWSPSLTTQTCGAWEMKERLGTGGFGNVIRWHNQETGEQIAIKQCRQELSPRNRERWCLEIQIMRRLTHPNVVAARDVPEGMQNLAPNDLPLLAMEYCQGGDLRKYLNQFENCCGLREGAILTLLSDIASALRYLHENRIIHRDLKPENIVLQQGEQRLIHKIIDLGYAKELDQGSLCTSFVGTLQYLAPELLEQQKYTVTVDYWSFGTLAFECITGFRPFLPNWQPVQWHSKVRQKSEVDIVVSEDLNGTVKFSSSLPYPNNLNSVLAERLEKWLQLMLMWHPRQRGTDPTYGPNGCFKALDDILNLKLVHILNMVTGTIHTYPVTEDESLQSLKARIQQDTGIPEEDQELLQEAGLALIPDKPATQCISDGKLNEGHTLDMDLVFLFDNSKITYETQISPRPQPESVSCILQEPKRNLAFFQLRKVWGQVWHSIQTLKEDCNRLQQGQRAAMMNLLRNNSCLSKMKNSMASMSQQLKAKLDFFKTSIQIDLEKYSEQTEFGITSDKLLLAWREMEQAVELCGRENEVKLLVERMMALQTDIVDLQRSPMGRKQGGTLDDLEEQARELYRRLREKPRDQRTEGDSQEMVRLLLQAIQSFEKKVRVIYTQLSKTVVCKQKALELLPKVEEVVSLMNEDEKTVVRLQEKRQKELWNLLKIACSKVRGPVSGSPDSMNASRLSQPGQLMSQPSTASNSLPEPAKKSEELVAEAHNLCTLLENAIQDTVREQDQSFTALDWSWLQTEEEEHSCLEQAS

[3] = target: T2, Activin receptor type-1B (Homo sapiens) (UniProt P36896); experiment: Inhibition of ALK4 at 0.1 uM; values are per cent of control
T2 sequence (whole entry): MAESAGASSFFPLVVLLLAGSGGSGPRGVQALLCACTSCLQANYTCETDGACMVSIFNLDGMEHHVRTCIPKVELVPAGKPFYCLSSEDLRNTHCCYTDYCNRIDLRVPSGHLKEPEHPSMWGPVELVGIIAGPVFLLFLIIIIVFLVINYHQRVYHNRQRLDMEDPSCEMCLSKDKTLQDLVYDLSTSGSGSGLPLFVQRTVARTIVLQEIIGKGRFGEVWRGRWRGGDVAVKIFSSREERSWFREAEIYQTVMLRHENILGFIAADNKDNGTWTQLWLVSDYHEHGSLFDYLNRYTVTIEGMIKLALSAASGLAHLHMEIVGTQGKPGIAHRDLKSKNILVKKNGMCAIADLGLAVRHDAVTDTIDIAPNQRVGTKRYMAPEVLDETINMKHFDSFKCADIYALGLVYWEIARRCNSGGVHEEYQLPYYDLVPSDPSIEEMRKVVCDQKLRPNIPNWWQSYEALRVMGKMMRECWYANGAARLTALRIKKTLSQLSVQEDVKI

[4] = target: Tyrosine-protein kinase Fgr (Homo sapiens) (UniProt P09769); experiment: Inhibition of Fgr at 0.1 uM; values are per cent of control
Chain of Tyrosine-protein kinase Fgr (Homo sapiens) (P09769 2-529 limits assumed): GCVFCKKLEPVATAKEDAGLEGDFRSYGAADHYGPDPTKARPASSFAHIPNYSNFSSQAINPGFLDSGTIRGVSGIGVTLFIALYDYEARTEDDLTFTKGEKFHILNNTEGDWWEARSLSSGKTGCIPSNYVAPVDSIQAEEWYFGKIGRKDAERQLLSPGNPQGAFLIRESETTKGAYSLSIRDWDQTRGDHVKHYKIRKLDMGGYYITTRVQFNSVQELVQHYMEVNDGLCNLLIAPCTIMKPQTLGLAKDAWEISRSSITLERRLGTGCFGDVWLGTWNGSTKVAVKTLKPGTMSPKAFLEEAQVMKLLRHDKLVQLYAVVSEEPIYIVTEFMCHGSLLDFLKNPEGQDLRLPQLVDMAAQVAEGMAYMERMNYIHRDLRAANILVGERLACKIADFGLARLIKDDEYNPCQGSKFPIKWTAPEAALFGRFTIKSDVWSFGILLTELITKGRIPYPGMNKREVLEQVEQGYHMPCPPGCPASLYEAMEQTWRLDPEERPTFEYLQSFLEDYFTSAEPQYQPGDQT

[5] = target: Tyrosine-protein kinase BTK (Homo sapiens) (UniProt Q06187); experiment: Inhibition of BTK at 1 uM; values are per cent of control
Chain of Tyrosine-protein kinase BTK (Homo sapiens) (Q06187 whole entry): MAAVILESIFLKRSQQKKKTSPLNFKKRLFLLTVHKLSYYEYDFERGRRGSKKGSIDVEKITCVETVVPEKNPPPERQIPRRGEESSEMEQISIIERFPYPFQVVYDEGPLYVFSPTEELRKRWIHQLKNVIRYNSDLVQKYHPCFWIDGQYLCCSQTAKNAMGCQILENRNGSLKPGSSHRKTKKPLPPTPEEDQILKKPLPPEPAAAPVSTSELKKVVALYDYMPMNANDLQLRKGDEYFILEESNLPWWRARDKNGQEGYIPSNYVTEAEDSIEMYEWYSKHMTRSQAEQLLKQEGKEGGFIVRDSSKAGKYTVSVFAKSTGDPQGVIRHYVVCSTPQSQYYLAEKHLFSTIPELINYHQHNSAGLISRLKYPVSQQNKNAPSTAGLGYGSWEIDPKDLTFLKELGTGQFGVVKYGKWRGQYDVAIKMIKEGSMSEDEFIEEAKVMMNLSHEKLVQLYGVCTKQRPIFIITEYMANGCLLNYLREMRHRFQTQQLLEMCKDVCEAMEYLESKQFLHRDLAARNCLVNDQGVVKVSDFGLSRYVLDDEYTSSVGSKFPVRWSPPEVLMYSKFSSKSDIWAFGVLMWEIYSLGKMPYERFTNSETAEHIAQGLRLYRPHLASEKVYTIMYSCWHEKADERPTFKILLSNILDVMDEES

[6] = Inhibition of MAPK2 at 1 uM; details: values are per cent of control
[7] = target: Vascular endothelial growth factor receptor 2 (Homo sapiens) (UniProt P35968); experiment: Inhibition of KDR at 0.1 uM; values are per cent of control
Chain of Vascular endothelial growth factor receptor 2 (Homo sapiens) (P35968 whole entry): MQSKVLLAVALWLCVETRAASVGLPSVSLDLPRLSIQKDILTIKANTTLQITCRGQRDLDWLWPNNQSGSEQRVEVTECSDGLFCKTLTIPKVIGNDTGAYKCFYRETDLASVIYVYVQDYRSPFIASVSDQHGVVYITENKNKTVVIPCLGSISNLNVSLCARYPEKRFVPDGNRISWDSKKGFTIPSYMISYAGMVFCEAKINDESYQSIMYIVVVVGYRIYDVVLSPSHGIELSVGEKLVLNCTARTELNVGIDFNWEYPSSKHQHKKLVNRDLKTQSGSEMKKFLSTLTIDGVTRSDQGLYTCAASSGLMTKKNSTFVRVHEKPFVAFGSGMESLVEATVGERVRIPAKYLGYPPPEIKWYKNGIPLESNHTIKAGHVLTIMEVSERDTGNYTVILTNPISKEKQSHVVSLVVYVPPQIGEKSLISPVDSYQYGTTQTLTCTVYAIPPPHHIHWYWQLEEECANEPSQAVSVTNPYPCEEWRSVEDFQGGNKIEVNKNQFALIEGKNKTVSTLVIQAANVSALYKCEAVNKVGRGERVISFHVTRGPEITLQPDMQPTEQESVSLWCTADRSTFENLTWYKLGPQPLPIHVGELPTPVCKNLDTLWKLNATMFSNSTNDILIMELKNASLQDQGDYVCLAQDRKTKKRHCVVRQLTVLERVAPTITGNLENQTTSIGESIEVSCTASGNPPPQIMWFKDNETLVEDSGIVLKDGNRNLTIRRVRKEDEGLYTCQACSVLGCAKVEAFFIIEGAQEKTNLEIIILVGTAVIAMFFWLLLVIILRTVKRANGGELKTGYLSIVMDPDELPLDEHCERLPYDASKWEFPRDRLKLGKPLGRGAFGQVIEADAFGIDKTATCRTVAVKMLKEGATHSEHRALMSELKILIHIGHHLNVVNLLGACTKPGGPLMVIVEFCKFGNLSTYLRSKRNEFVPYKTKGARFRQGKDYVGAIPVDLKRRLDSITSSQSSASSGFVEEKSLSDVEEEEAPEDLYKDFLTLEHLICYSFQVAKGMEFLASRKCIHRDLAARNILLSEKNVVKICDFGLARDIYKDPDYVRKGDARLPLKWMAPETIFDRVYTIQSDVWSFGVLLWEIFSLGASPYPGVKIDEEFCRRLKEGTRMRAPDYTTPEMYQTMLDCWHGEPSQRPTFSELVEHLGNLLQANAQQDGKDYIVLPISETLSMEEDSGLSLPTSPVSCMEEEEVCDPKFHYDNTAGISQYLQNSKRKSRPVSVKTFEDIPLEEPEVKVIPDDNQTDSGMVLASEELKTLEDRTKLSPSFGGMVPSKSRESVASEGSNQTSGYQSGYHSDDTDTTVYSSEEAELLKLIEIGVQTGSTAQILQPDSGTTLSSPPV

[8] = target: Fibroblast growth factor receptor 1 (Homo sapiens) (UniProt P11362); experiment: Inhibition of FGFR1 at 1 uM; values are per cent of control
Chain of Fibroblast growth factor receptor 1 (Homo sapiens) (P11362 22-822 limits assumed): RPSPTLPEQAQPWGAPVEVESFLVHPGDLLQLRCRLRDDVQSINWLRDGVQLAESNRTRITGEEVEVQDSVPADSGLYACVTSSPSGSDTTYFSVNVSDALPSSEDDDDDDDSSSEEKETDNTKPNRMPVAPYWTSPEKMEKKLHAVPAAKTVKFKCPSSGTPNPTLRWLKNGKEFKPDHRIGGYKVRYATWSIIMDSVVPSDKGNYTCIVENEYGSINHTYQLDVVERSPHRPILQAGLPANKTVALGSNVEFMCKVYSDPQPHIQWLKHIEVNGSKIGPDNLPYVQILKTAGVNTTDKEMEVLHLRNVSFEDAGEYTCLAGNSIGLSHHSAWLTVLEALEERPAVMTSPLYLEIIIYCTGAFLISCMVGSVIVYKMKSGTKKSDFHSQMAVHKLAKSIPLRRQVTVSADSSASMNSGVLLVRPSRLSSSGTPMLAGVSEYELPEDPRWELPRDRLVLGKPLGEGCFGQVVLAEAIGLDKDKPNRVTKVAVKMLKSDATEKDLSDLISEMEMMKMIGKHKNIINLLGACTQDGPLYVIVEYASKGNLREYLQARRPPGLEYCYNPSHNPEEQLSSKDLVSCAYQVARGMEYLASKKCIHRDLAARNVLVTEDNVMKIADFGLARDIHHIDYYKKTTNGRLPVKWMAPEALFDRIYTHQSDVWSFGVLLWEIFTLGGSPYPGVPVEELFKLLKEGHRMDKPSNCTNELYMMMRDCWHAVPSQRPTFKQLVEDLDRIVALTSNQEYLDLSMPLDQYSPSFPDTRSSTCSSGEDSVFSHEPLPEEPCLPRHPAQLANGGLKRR

[9] = target: T3, Mitogen-activated protein kinase kinase kinase 7 (Homo sapiens) (UniProt O43318); experiment: Inhibition of TAK1 at 0.1 uM; values are per cent of control
T3 sequence (whole entry): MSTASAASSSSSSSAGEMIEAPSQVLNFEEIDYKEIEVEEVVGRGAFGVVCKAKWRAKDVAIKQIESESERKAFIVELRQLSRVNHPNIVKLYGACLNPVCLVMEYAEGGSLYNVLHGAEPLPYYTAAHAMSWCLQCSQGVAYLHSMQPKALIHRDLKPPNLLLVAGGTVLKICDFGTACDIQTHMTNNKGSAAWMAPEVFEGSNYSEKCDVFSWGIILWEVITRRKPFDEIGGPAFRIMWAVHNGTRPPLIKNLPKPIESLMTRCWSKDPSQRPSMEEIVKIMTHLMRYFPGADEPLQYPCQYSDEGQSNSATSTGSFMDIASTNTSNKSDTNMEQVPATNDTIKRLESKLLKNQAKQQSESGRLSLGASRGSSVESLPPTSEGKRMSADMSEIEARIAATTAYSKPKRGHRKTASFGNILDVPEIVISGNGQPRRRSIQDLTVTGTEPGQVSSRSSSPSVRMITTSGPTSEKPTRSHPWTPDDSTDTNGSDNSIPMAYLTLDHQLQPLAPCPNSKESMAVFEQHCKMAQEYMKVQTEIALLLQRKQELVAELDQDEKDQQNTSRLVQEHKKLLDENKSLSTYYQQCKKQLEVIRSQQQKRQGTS

[10] = target: Cyclin-dependent kinase 7/ cyclin H (Homo sapiens) (UniProt P51946+P50613); experiment: Inhibition of CDK7/cyclin H/MAT1 at 0.1 uM; values are per cent of control
[11] = target: T4, Serine/threonine-protein kinase Sgk1 (Homo sapiens) (UniProt O00141); experiment: Inhibition of SGK at 1 uM; values are per cent of control
T4 sequence (whole entry): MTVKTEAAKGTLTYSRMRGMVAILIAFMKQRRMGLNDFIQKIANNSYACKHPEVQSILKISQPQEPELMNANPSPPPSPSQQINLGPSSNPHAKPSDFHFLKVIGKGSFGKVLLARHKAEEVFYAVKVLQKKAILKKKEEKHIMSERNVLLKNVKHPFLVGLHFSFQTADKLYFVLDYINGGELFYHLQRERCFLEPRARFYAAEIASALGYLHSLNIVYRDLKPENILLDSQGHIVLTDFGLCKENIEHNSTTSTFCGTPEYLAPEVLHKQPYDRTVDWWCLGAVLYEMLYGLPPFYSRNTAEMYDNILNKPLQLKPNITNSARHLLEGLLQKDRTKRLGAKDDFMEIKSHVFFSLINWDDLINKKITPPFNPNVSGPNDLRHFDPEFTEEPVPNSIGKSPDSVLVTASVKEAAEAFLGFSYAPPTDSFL

residual activity [1] [%]	residual activity [2] [%]	residual activity [3] [%]	residual activity [4] [%]	residual activity [5] [%]	residual activity [6] [%]	residual activity [7] [%]	residual activity [8] [%]	residual activity [9] [%]	residual activity [10] [%]	residual activity [11] [%]	SMILES
100	103	87	2	-4	84	45	-2	84	94	97	Cc1ccc2cc(-c3n[nH]c4ccc(NC5CCN(Cc6ccccc6)CC5)cc34)[nH]c2c1
108	99	124	0	10	64	28	0	73	42	32	Cc1ccc2cc(-c3n[nH]c4ccc(NC5CCNC5)cc34)[nH]c2c1 (configuration not stated)
